Reference: article PMC7238232, “Acamprosate Is a Substrate of the Human Organic Anion Transporter (OAT) 1 without OAT3 Inhibitory Properties: Implications for Renal Acamprosate Secretion and Drug–Drug Interactions” (Pharmaceutics, 2020)
“Also recorded” adds a separate entry of the source. Read-outs that look alike come from different tables or passages of the source.

Assays:
PAT1 = details: Caco-2 cells, preliminary data; cited from earlier work
OATP2B1 = details: Caco-2 cells, preliminary data; cited from earlier work
HEK293-Flp-In mock cells = assay: Control uptake studies in HEK293-Flp-In mock cells
Procedure: All uptake experiments were performed on 24- or 96-well plates. Before the experiment initiation, the cells were incubated with either 500 or 200 µL∙well^−1 prewarmed buffer for 10 min at 37 °C in a microplate incubator (VWR International AB, Stockholm, Sweden), without shaking. […] The experiment was stopped by adding 200 µL∙well^−1 of ice-cold buffer and subsequent rinse three times with the same amount of buffer. […] A total of 50 µL of cell lysate from each well was transferred to 96-well Luma plates bottom coated with dry scintillant. Then, 2∙20 µL of each donor and three 50 µL blank samples were applied on the same plate. The dry plates were covered with transparent seals and analyzed using a TopCount NXT Microplate Scintillation and Luminescence Counter (Perkin Elmer, Waltham, MA, USA). The remaining 20 µL cell lysate was neutralized with 20 µL 1M HCl∙well^−1, samples were mixed thoroughly and the total protein content in all the wells was measured using a BCA protein assay kit, microplate method, and a Tecan Safire II fluorometer (Tecan Austria GmbH, Grödig, Austria). […] The total protein content was measured by using a BCA protein assay kit and a FLUOStar Omega fluorescence microplate reader (BMG Labtech, Ortenberg, Germany). The protein assay for the OAT3 and mock cell lines was performed in four independent wells of each cell line, seeded and treated in the same manner as the cells used in the uptake assay. For all the OAT1, OAT3, and mock isotope uptake studies, the radiolabelled tracer accumulation (pmol) in each well was calculated by first determining the activity of the isotope (DPM∙pmol^−1) from the radioactivity (DPM) of the donor sample divided by the theoretical isotope concentration (pmol), then dividing the total radioactivity in the well (DPM) to the specific activity of the isotope (DPM∙pmol^−1).

[1] = Clinical pharmacokinetics in humans (literature); details: for Cmax,u: acamprosate, calculated
HEK293-Flp-In OAT3 cells = assay: CellTiter-Glo cell viability assay, OAT3 transfected cells; details: up to 3300 µM acamprosate; 3 h
OAT3 [2] = molecular target: T1, OAT3 (Homo sapiens, UniProt Q8TCC7); assay: [3H]-E3S uptake and its inhibition in HEK293-Flp-In OAT3 cells; type: cell-based
T1 sequence (Q8TCC7 1-542): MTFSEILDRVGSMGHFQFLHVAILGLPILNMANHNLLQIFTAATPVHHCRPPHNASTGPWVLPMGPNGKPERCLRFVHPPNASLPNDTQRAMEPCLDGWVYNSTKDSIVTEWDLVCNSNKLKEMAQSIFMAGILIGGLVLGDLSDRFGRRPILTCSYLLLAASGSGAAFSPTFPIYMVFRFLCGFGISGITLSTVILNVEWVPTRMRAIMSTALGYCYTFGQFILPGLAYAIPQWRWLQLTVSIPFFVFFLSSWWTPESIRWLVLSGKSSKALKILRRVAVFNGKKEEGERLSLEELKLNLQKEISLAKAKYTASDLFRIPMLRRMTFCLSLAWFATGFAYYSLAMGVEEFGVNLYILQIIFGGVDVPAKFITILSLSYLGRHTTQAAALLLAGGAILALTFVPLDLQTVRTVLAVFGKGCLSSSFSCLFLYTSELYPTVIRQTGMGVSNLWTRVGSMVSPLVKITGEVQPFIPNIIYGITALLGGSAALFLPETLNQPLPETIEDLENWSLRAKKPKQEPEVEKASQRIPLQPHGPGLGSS
Procedure: All uptake experiments were performed on 24- or 96-well plates. Before the experiment initiation, the cells were incubated with either 500 or 200 µL∙well^−1 prewarmed buffer for 10 min at 37 °C in a microplate incubator (VWR International AB, Stockholm, Sweden), without shaking. […] The experiment was stopped by adding 200 µL∙well^−1 of ice-cold buffer and subsequent rinse three times with the same amount of buffer. In Lab. 1 the sample analysis of the OAT1/OAT3/mock studies consisted in removing the rinsing buffer and lysing the cells with 70 µL 1M NaOH, following by incubation for 60 min at 37 °C and 100 rpm. A total of 50 µL of cell lysate from each well was transferred to 96-well Luma plates bottom coated with dry scintillant. Then, 2∙20 µL of each donor and three 50 µL blank samples were applied on the same plate. The dry plates were covered with transparent seals and analyzed using a TopCount NXT Microplate Scintillation and Luminescence Counter (Perkin Elmer, Waltham, MA, USA). The remaining 20 µL cell lysate was neutralized with 20 µL 1M HCl∙well^−1, samples were mixed thoroughly and the total protein content in all the wells was measured using a BCA protein assay kit, microplate method, and a Tecan Safire II fluorometer (Tecan Austria GmbH, Grödig, Austria). For the experiments in Lab. 2, the cells were lysed by adding 200 µL 0.1% Triton X-100 and incubated for 5 min at 37 °C and 100 rpm. […] The total protein content was measured by using a BCA protein assay kit and a FLUOStar Omega fluorescence microplate reader (BMG Labtech, Ortenberg, Germany). The protein assay for the OAT3 and mock cell lines was performed in four independent wells of each cell line, seeded and treated in the same manner as the cells used in the uptake assay. For all the OAT1, OAT3, and mock isotope uptake studies, the radiolabelled tracer accumulation (pmol) in each well was calculated by first determining the activity of the isotope (DPM∙pmol^−1) from the radioactivity (DPM) of the donor sample divided by the theoretical isotope concentration (pmol), then dividing the total radioactivity in the well (DPM) to the specific activity of the isotope (DPM∙pmol^−1).
A range of preincubation solutions was prepared at the same concentrations of acamprosate applied in the inhibition assays. Acamprosate was dissolved in HBSS buffered with 10 mM HEPES and the pH was adjusted to 7.40 ± 0.01. The preincubation solutions were prewarmed to 37 °C and applied to the corresponding cells after removing the cell growth medium. The preincubation was done for 3 h, at 37 °C, without shaking. After the preincubation, the solutions were removed, and the inhibition experiment was performed as described in the Section 2.6.
The obtained intracellular amounts (pmol) were normalized to the assay time (min) and cell surface area (cm^2) or protein amount (mg protein) to obtain a term hereafter referred to as uptake rate. […] Assuming competitive interaction, equilibrium dissociation constants, Ki, were calculated from the IC50 value for each substrate/inhibitor pair, at substrate Km, using the Cheng–Prusoff equation [24].

[3] = rats, cited from earlier work
OAT3 [4] = molecular target: T1, OAT3; assay: Drug-drug interaction (DDI) index calculation, OAT3; details: oral and intravenous administration of inhibitor
Source text: Input values for Cmax,u or C0,u calculated from clinical studies are listed in Appendix B, Table A1.

B^0,+AT/rBAT = details: Caco-2 cells, preliminary data; cited from earlier work
PEPT1 = details: Caco-2 cells, preliminary data; cited from earlier work

For CC(=O)NCCCS(=O)(=O)O [acamprosate, acetylhomotaurinate], the “inhibition of substrate transport via PAT1” value (PAT1) is listed as “did not inhibit”, the “inhibition of substrate transport via OATP2B1” value (OATP2B1) is listed as “did not inhibit” and the “effect on uptake of [3H]-E3S in mock cells” value (HEK293-Flp-In mock cells; 0.02 µM [3H]-E3S, 200 µM E3S, 300 µM or 0.2–1022 µM probenecid, 10,000 µM acamprosate, Lab. 2) is listed as “did not affect”. For the same compound, the “effect on uptake of [14C]-PAH in mock cells” value (HEK293-Flp-In mock cells; 9.5 µM [14C]-PAH, 200 µM PAH, 300 µM or 0.02–1022 µM probenecid, acamprosate, Lab. 1) was “did not inhibit”, the “saturability of dose-dependent substrate uptake in mock cells” value (HEK293-Flp-In mock cells; same substrate concentrations as in transfected cells, acamprosate 0.33–3300 µM) was “not saturable” and the “Cmax,u” value ([1]; IV bolus, 333 mg) was 153 ± 38 µM. For the same compound, the “Cmax,u” value ([1]; IV bolus, 666 mg) was 214 ± 10 µM, the “Cmax,u” value ([1]; IV bolus, 710 mg) was 230 ± 64 µM and the “Cmax,u” value ([1]; IV bolus, 1420 mg) was 486 ± 106 µM. The “Cmax,u” value ([1]; IV bolus, 2130 mg) was 768 ± 149 µM, the “Cmax,u” value ([1]; oral solution, 333 mg) was 1.8 ± 0.8 µM and the “Cmax,u” value ([1]; oral solution, 666 mg) was 4.3 ± 1.4 µM. The “Cmax,u” value ([1]; oral solution, 1332 mg) was 5.0 ± 1.7 µM, the “Cmax,u” value ([1]; oral solution, 2664 mg) was 8.6 ± 4.1 µM and the “Cmax,u” value ([1]; oral tablet, 666 mg) was 1.4 ± 1.1 µM. The “Cmax,u” value ([1]; oral tablet, 1332 mg) was 1.5 ± 0.1 µM, the “contribution of active secretion to total CLR” value ([1]; estimated from CLR and GFR·fu) was “more than 44%” and the “decrease in cell viability” value (HEK293-Flp-In OAT3 cells) was no more than 10%. The IC50 (OAT3 [2]) was greater than 10 mM, the “effect on uptake of [3H]-E3S in OAT3 expressing cells” value (OAT3 [2]; 0.02 µM [3H]-E3S, 200 µM E3S, 300 µM probenecid, 1000 or 10,000 µM acamprosate, Lab. 2) was “did not affect” and the “inhibition of [3H]-E3S uptake via OAT3, with and without 3 h preincubation” value (OAT3 [2]; all applied acamprosate concentrations, up to 10 mM) was “lack of inhibitory effect; also recorded: did not inhibit”. The IC50 (OAT3 [2]; read-out: IC50, Estrone-3-Sulfate, input for DDI index, Table A1) was greater than 10 mM, the “CLR, % of the initial CLR” value ([3]; 9.3 mg/kg acamprosate i.v. with 33.3 mg/kg probenecid) was 59% and the “CLR, % of the initial CLR” value ([3]; 9.3 mg/kg acamprosate i.v. with 66.6 mg/kg probenecid) was 45%. The “unbound acamprosate CLR with probenecid, compared to control” value [3] was 0.45 fold, the “increase in acamprosate AUC0∞ caused by probenecid” value ([3]; compared to control) was 2.2 fold and the “renal clearance (CLR)” value ([3]; intravenous 9.3 mg/kg acamprosate, without probenecid) was 0.35 L/h. For the same compound, the “DDI index, substrate E3S” value (OAT3 [4]) was <<0.02 ^a, b, the “inhibition of substrate transport via B^0,+AT/rBAT” value (B^0,+AT/rBAT) was “did not inhibit” and the “inhibition of substrate transport via PEPT1” value (PEPT1) was “did not inhibit”.
